Measured values as given in paper PMC10590056, “Design and synthesis of cabotegravir derivatives bearing 1,2,3-triazole and evaluation of anti-liver cancer activity” (Frontiers in Pharmacology, 2023).
Where “and” joins values, the source holds several entries; their conditions need not be identical. Equal entries are not always repeated.

How the values were obtained:
Format in all cases: cell-based
MCF-7 cells = test: MTT assay for cell proliferation, MCF-7; parameters: key to Inhibitory rate / Inhibition rate: inhibition rate = 1 - mean A490 sample/mean A490 control (fraction); conditions: for Inhibition rate (16μM), 48 h, MCF-7: preliminary screening, MCF-7, 16 μM, mean±SD, unit not given
Experimental: (§1) HepG2, HeLa, MCF-7, and KYSE-30 cells were grown in a humidified incubator at 37°C with 5% CO2 in DMEM supplemented with 10% fetal bovine serum (FBS), […] streptomycin, and 100 U/mL penicillin.
(§2) When HepG2 cells reached 80% confluence, they were treated with 1 mL of trypsin and resuspended at a density of 10^5 cells/mL. Then, 100 μL of cell suspension was seeded into each well of a 96-well plate and incubated in a humidified atmosphere. The different concentrations of KJ-5 and KJ-12 (0, 1, 2, 4, 8, 16, and 32 μM) were added to each well, and the cells were further incubated for 48 h. Afterward, 20 μL of the MTT solution (5 mg/mL) was added to each well, and incubation was continued for another 4 h. The supernatant was discarded, and 200 μL of the DMSO solution was added to each well. The plate was shaken for 10 min in the dark. The absorbance values were measured at 490 nm using an enzyme-linked detector. The cell inhibition rate (%) was calculated using the following formula: (1-Mean A490 sample/Mean A490 control) × 100%.

HeLa cells = test: MTT assay for cell proliferation, HeLa; parameters: key to Inhibitory rate: inhibition rate = 1 - mean A490 sample/mean A490 control (fraction); conditions: Hela; for Inhibitory rate / ODtreated/ODcontrol: fraction, per experiment; for Inhibition rate (16μM), 48 h, Hela: preliminary screening, mean±SD, unit not given
Experimental: as §1, §2

HepG2 cells = test: MTT assay for cell proliferation and cytotoxicity, HepG2; parameters: key to Inhibitory rate: inhibition rate = 1 - mean A490 sample/mean A490 control (fraction); conditions: for IC50: HepG2, 48 h, MTT; for Inhibitory rate / ODtreated/ODcontrol: HepG2, fraction, per experiment; for Inhibition rate (16μM), 48 h, HepG2: preliminary screening, HepG2, 16 μM, mean±SD, unit not given
Experimental: as §1, §2

KYSE-30 cells = test: MTT assay for cell proliferation, KYSE-30; parameters: key to Inhibitory rate: inhibition rate = 1 - mean A490 sample/mean A490 control (fraction); conditions: for Inhibitory rate: KYSE-30, given as fraction; for Inhibition rate (16μM), 48 h, KYSE-30: preliminary screening, KYSE-30, 16 μM, mean±SD, unit not given
Experimental: as §1, §2

[1] = MCF-7, fraction, per experiment
[2] = given as fraction, second of three experiments
[3] = given as fraction, third of three experiments
[4] = KYSE-30, first of three experiments
[5] = KYSE-30, second of three experiments
[6] = KYSE-30, third of three experiments

## COc1c2n(cc(C(=O)Nc3cccc(-c4cn(-c5cccc(Br)c5)nn4)c3)c1=O)CC1OCC(C)N1C2=O (stereo not shown) [KJ-18]
MCF-7 cells; [1]
  Inhibitory rate: 0.5861
  ODtreated/ODcontrol: 0.4139
MCF-7 cells; [2]
  Inhibitory rate: 0.5487
MCF-7 cells; [3]
  Inhibition rate: 0.6055
MCF-7 cells
  Inhibition rate (16μM), 48 h, MCF-7: 58.01±2.89
MCF-7 cells; second of three experiments
  ODtreated/ODcontrol: 0.4513
MCF-7 cells; third of three experiments
  ODtreated/ODcontrol: 0.3945
HeLa cells
  Inhibitory rate: 0.6347 and 0.6562 and 0.6485
  ODtreated/ODcontrol: 0.3653 and 0.3438 and 0.3515
  Inhibition rate (16μM), 48 h, Hela: 64.65±1.09
HepG2 cells
  IC50: 6.57 ± 1.45 µM
  Inhibitory rate: 0.7113 and 0.6793 and 0.7366
  ODtreated/ODcontrol: 0.2887 and 0.3207 and 0.2634
  Inhibition rate (16μM), 48 h, HepG2: 70.90±2.87
KYSE-30 cells; [4]
  ODtreated/ODcontrol: 0.385
KYSE-30 cells; first of three experiments
  Inhibitory rate: 0.615
KYSE-30 cells; second of three experiments
  Inhibitory rate: 0.5247
KYSE-30 cells; third of three experiments
  Inhibitory rate: 0.5847
KYSE-30 cells; [5]
  ODtreated/ODcontrol: 0.4753
KYSE-30 cells; [6]
  ODtreated/ODcontrol: 0.4153
KYSE-30 cells
  Inhibition rate (16μM), 48 h, KYSE-30: 57.48±4.60

## COc1c2n(cc(C(=O)Nc3cccc(-c4cn(-c5ccc(F)cc5)nn4)c3)c1=O)CC1OCC(C)N1C2=O (stereo not shown) [KJ-14]
MCF-7 cells; [1]
  Inhibitory rate: 0.4819
  ODtreated/ODcontrol: 0.5181
MCF-7 cells; [2]
  Inhibitory rate: 0.5123
MCF-7 cells; [3]
  Inhibition rate: 0.5403
MCF-7 cells
  Inhibition rate (16μM), 48 h, MCF-7: 51.15±2.92
MCF-7 cells; second of three experiments
  ODtreated/ODcontrol: 0.4877
MCF-7 cells; third of three experiments
  ODtreated/ODcontrol: 0.4597
HeLa cells
  Inhibitory rate: 0.494 and 0.5678 and 0.4688
  ODtreated/ODcontrol: 0.506 and 0.4322 and 0.5312
  Inhibition rate (16μM), 48 h, Hela: 51.02±5.15
HepG2 cells
  IC50: 9.94 ± 0.78 µM
  Inhibitory rate: 0.5683 and 0.5455 and 0.5583
  ODtreated/ODcontrol: 0.4317 and 0.4545 and 0.4417
  Inhibition rate (16μM), 48 h, HepG2: 55.74±1.15
KYSE-30 cells; [4]
  ODtreated/ODcontrol: 0.5122
KYSE-30 cells; first of three experiments
  Inhibitory rate: 0.4878
KYSE-30 cells; second of three experiments
  Inhibitory rate: 0.5323
KYSE-30 cells; [5]
  ODtreated/ODcontrol: 0.4677
KYSE-30 cells
  Inhibition rate (16μM), 48 h, KYSE-30: 52.98±4.08

## COc1c2n(cc(C(=O)Nc3cccc(-c4cn(-c5ccccc5Cl)nn4)c3)c1=O)CC1OCC(C)N1C2=O (stereo not shown) [KJ-19]
MCF-7 cells; [1]
  Inhibitory rate: 0.5839
  ODtreated/ODcontrol: 0.4161
MCF-7 cells; [2]
  Inhibitory rate: 0.531
MCF-7 cells; [3]
  Inhibition rate: 0.6163
MCF-7 cells
  Inhibition rate (16μM), 48 h, MCF-7: 57.71±4.31
MCF-7 cells; second of three experiments
  ODtreated/ODcontrol: 0.469
MCF-7 cells; third of three experiments
  ODtreated/ODcontrol: 0.3837
HeLa cells
  Inhibitory rate: 0.6257 and 0.6335 and 0.6346
  ODtreated/ODcontrol: 0.3743 and 0.3665 and 0.3654
  Inhibition rate (16μM), 48 h, Hela: 63.13±0.49
HepG2 cells
  IC50: 7.5 ± 1.19 µM
  Inhibitory rate: 0.7209 and 0.735 and 0.7422
  ODtreated/ODcontrol: 0.2791 and 0.265 and 0.2578
  Inhibition rate (16μM), 48 h, HepG2: 73.27±1.09
KYSE-30 cells; [4]
  ODtreated/ODcontrol: 0.43
KYSE-30 cells; first of three experiments
  Inhibitory rate: 0.57
KYSE-30 cells; second of three experiments
  Inhibitory rate: 0.5211
KYSE-30 cells; third of three experiments
  Inhibitory rate: 0.5717
KYSE-30 cells; [5]
  ODtreated/ODcontrol: 0.4789
KYSE-30 cells; [6]
  ODtreated/ODcontrol: 0.4283
KYSE-30 cells
  Inhibition rate (16μM), 48 h, KYSE-30: 55.43±2.87

## COc1ccccc1-n1cc(-c2cccc(NC(=O)c3cn4c(c(OC)c3=O)C(=O)N3[C@@H](C)CO[C@@H]3C4)c2)nn1 [KJ-7]
MCF-7 cells; [1]
  Inhibitory rate: 0.4361
  ODtreated/ODcontrol: 0.5639
MCF-7 cells; [2]
  Inhibitory rate: 0.4406
MCF-7 cells; [3]
  Inhibition rate: 0.3594
MCF-7 cells
  Inhibition rate (16μM), 48 h, MCF-7: 41.2±4.56
MCF-7 cells; second of three experiments
  ODtreated/ODcontrol: 0.5594
MCF-7 cells; third of three experiments
  ODtreated/ODcontrol: 0.6406
HeLa cells
  Inhibitory rate: 0.3847 and 0.3789 and 0.3067
  ODtreated/ODcontrol: 0.6153 and 0.6211 and 0.6933
  Inhibition rate (16μM), 48 h, Hela: 35.68±4.35
HepG2 cells
  IC50: 21.7 ± 1.07 µM
  Inhibitory rate: 0.4068 and 0.4092 and 0.416
  ODtreated/ODcontrol: 0.5932 and 0.5908 and 0.584
  Inhibition rate (16μM), 48 h, HepG2: 41.07±0.48
KYSE-30 cells; [4]
  ODtreated/ODcontrol: 0.5159
KYSE-30 cells; first of three experiments
  Inhibitory rate: 0.4841
KYSE-30 cells; second of three experiments
  Inhibitory rate: 0.4213
KYSE-30 cells; third of three experiments
  Inhibitory rate: 0.4377
KYSE-30 cells; [5]
  ODtreated/ODcontrol: 0.5787
KYSE-30 cells; [6]
  ODtreated/ODcontrol: 0.5623
KYSE-30 cells
  Inhibition rate (16μM), 48 h, KYSE-30: 44.77±3.26

## COc1c2n(cc(C(=O)Nc3cccc(-c4cn(-c5ccccc5C(F)(F)F)nn4)c3)c1=O)C[C@H]1OC[C@H](C)N1C2=O [KJ-1]
MCF-7 cells; [1]
  Inhibitory rate: 0.4609
  ODtreated/ODcontrol: 0.5391
MCF-7 cells; [2]
  Inhibitory rate: 0.4929
MCF-7 cells; [3]
  Inhibition rate: 0.3773
MCF-7 cells
  Inhibition rate (16μM), 48 h, MCF-7: 44.37±5.97
MCF-7 cells; second of three experiments
  ODtreated/ODcontrol: 0.5071
MCF-7 cells; third of three experiments
  ODtreated/ODcontrol: 0.6227
HeLa cells
  Inhibitory rate: 0.456 and 0.4789 and 0.3414
  ODtreated/ODcontrol: 0.544 and 0.5211 and 0.6586
  Inhibition rate (16μM), 48 h, Hela: 44.98±3.26
HepG2 cells
  IC50: 13.6 ± 1.09 µM
  Inhibitory rate: 0.48 and 0.4907 and 0.4342
  ODtreated/ODcontrol: 0.52 and 0.5093 and 0.5658
  Inhibition rate (16μM), 48 h, HepG2: 46.83±3.00
KYSE-30 cells; [4]
  ODtreated/ODcontrol: 0.5729
KYSE-30 cells; first of three experiments
  Inhibitory rate: 0.4271
KYSE-30 cells; second of three experiments
  Inhibitory rate: 0.3646
KYSE-30 cells; third of three experiments
  Inhibitory rate: 0.3875
KYSE-30 cells; [5]
  ODtreated/ODcontrol: 0.6354
KYSE-30 cells; [6]
  ODtreated/ODcontrol: 0.6125
KYSE-30 cells
  Inhibition rate (16μM), 48 h, KYSE-30: 39.31±3.16

## COc1c2n(cc(C(=O)Nc3cccc(-c4cn(-c5ccc(C(F)(F)F)cc5)nn4)c3)c1=O)C[C@H]1OC[C@H](C)N1C2=O [KJ-10]
MCF-7 cells; [1]
  Inhibitory rate: 0.366
  ODtreated/ODcontrol: 0.634
MCF-7 cells; [2]
  Inhibitory rate: 0.3141
MCF-7 cells; [3]
  Inhibition rate: 0.2908
MCF-7 cells
  Inhibition rate (16μM), 48 h, MCF-7: 33.36±3.87
MCF-7 cells; second of three experiments
  ODtreated/ODcontrol: 0.6859
MCF-7 cells; third of three experiments
  ODtreated/ODcontrol: 0.7092
HeLa cells
  Inhibitory rate: 0.353 and 0.3445 and 0.3223
  ODtreated/ODcontrol: 0.647 and 0.6555 and 0.6777
  Inhibition rate (16μM), 48 h, Hela: 33.99±1.59
HepG2 cells
  IC50: > 50 µM
  Inhibitory rate: 0.3299 and 0.3414 and 0.3063
  ODtreated/ODcontrol: 0.6701 and 0.6586 and 0.6937
  Inhibition rate (16μM), 48 h, HepG2: 32.59±1.79
KYSE-30 cells; [4]
  ODtreated/ODcontrol: 0.6507
KYSE-30 cells; first of three experiments
  Inhibitory rate: 0.3493
KYSE-30 cells; second of three experiments
  Inhibitory rate: 0.2142
KYSE-30 cells; third of three experiments
  Inhibitory rate: 0.2217
KYSE-30 cells; [5]
  ODtreated/ODcontrol: 0.7858
KYSE-30 cells; [6]
  ODtreated/ODcontrol: 0.7783
KYSE-30 cells
  Inhibition rate (16μM), 48 h, KYSE-30: 26.17±7.59
